Converted amounts (≈) assume the structure as drawn. “Also recorded” adds a separate entry of the source. Square brackets hold non-standard residues; d marks the D form. Peptide text beside a SMILES is read from it. Ac6c = NC1(C(=O)O)CCCCC1
Experiments:
E. coli BW25113 ∆sbmA = type: cell-based, Escherichia coli; details: 20 h, at least duplicates on two days, * once on two days, ** duplicate on one day; for Minimal Inhibitory Concentration, 25% MHB2, ∆sbmA: 25% MHB2, 37 °C; for Minimal Inhibitory Concentration, 33% TSB, ∆sbmA: 37 °C
Summary of the method: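 Twofold peptide dilutions from 128 mg/L were made in 25% MHB2 or 33% TSB, with 4 h subcultured bacteria added to […]. After 20 h at 37 °C, OD595 was read; MIC is the lowest peptide concentration preventing visible growth.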

E. coli BW25113 [1] = test: MIC, liquid broth micro dilution, wild type; type: cell-based, Escherichia coli; details: for MIC (µg/mL), Table 3: BW25113, 4 h; for Minimal Inhibitory Concentration, 25% MHB2, wt / Minimal Inhibitory Concentration, 33% TSB, wt: BW25113, 20 h
Procedure: MIC values were determined using a liquid broth micro dilution assay in sterile 96-well plates (polystyrene F-bottom, Greiner Bio-One GmbH) and a total volume of 100 μL per well. Aqueous peptide solutions (10 g/L) were serially twofold diluted in 25% Mueller-Hinton broth 2 (25% MBH2) or 33% tryptic soy broth (33% TSB) starting at a peptide concentration of 128 mg/L (50 μL/well). Overnight cultures of bacteria grown in 25% MHB2 (or 33% TSB) were diluted 30-fold in 25% MHB2 (or 33% TSB). After an incubation period of 4 h (37 °C, 200 rpm), cells were diluted to 1.5 × 10^7 cfu/mL, based on a McFarland test, and 50 μL were added to each well (final concentration of 7.5 × 10^6 […]). The plates were incubated (37 °C, 20 h) and the optical density was recorded at 595 nm using a microplate reader ([…]^TM, Beckmann Coulter). The MIC was defined as the lowest peptide concentration preventing visible bacterial growth.

E. coli 70S ribosome [2] = test: Cell-free GFP expression assay (in vitro translation); type: biochemical; details: for In Vitro Translation (%): GFP expression remaining relative to control, concentration not given (higher concentration 50 µmol/L)
Text: Possible effects of ARV-1502 and its substituted analogs on the in vitro translation of the green fluorescent protein (GFP) were probed using the NEB PureExpress Delta RF123 Kit (New England Biolabs, Ipswich, MA, USA). The sfGFP DNA template was amplified from pY71sfGFP plasmid by PCR introducing an UAA stop codon. Release factor 1 (RF1) was 50fold diluted in Pure System Buffer (PSB) containing magnesium acetate (1 mol/L), monopotassium phosphate (0.5 mol/L, pH 7.3), potassium glutamate (1 mol/L), NH4Cl (1 mol/L), calcium chloride (0.5 mol/L), spermidine (1 mol/L), putrescine (0.1 mol/L), and DTT (0.1 mol/L). Each reaction used 35 ng of sfGFP template. Peptides were added at a final concentration of 5 µmol/L and 50 µmol/L. The reaction was started by adding Kit solutions A (2 µL) and B (1.5 µL), diluted RF1 (0.5 µL), sfGFP template (0.25 µL or water as negative control), PSB (0.25 µL), and peptide (0.5 µL or water), mixed, transferred into a black 384-well plate (flat bottom, Greiner Bio-One GmbH), and incubated (37 °C, 2 h). The fluorescence was recorded every 10 min (λexc = 485 nm, λem = 535 nm) in a microplate reader (Gemini EM, Molecular Devices LLC, San Jose, CA, USA).

E. coli BW25113 [3] = test: Checkerboard assay (FICI); type: cell-based, Escherichia coli; details: E. coli BW25113, 25% MHB2; synergy FICI ≤ 0.5, antagonism FICI ≥ 4; Table S6
Procedure: Synergy was tested in sterile 96-well plates (polystyrene F-bottom, Greiner Bio-One GmbH) using a total volume of 100 μL per well. […] Plates were incubated (37 °C, 20 h) and the optical density recorded at 595 nm using a microplate reader (Victor3, Perkin Elmer Inc., Waltham, MA, USA). The fractional inhibitory concentration index (FICI) was calculated by the equation FICI = […] = (A/MICA) + (B/MICB), where MICA/B are the MICs of an antimicrobial peptide (A) and one of the three tested antibiotics (B) alone and A and B are the MICs of combined antimicrobials. Synergy was defined as FICI ≤ 0.5, antagonism as FICI ≥ 4 and additive or indifference as FICI between 0.5 and 4.

E. coli 70S ribosome [4] = test: Competitive fluorescence polarization assay against Cf-Api137 (Ki); type: binding; details: Supplementary Figure S3; read-out: Ki as competitor of Cf-Api137
Procedure: (§1) Dissociation and inhibitory constants were determined in black 384-well-plates (Greiner Bio-One GmbH, Frickenhausen, Germany) blocked with 0.5% (w/v) casein in phosphate buffered saline (PBS, 8.8 mmol/L Na2HPO4×12 H2O, 1.2 mmol/L KH2PO4, 0.3 mol/L NaCl, pH 7.4) containing 0.05% (w/v) Tween® 20 (PBST) overnight at 4 °C and washed three times with PBST.
(§2) Ribosome solution was added (10 µmol/L) and the plate was incubated after centrifugation (2 min, 500× g, Rotor S2096, Allegra^TM 21R, Beckmann Coulter) at 28 °C for 90 min. Cf-labeled peptide was added (10 µL; final concentration of 20 nmol/L; final ribosome concentration of 0.5 µmol/L) and the plate was centrifuged and incubated again (90 min, 28 °C, dark). Fluorescence polarization was recorded (λex = 485 nm, λem = 535 nm) on a […]^TM microplate reader. Kd and IC50 values were calculated by fitting the data with a variable slope parameter [y = min + (max − min)/(1 + (x/Kd) ^−Hill slope) ] using SigmaPlot 13 (Systat Software Inc., San Jose, CA, USA). The obtained IC50 values were used to calculate the Ki values.

E. coli 70S ribosome [5] = test: Competitive fluorescence polarization assay against Cf-Onc112 (Ki); type: binding; details: Supplementary Figure S3; read-out: Ki as competitor of Cf-Onc112
Procedure: as §1, §2

Row | SMILES | Minimal Inhibitory Concentration, 25% MHB2, ∆sbmA (E. coli BW25113 ∆sbmA) | Minimal Inhibitory Concentration, 33% TSB, ∆sbmA (E. coli BW25113 ∆sbmA) | MIC (µg/mL), Table 3 (E. coli BW25113 [1]) | Minimal Inhibitory Concentration, 25% MHB2, wt (E. coli BW25113 [1]) | Minimal Inhibitory Concentration, 33% TSB, wt (E. coli BW25113 [1]) | In Vitro Translation (%) (E. coli 70S ribosome [2]) | IC50 (E. coli 70S ribosome [2]; in vitro translation, Supplementary Figure S2, reference 4 is also given at the place, read-out: IC50 of inhibition of GFP expression) | Checkerboard assay (FICI), peptide combined with chloramphenicol (E. coli BW25113 [3]) | Ki (E. coli 70S ribosome [4]) | Ki (E. coli 70S ribosome [5]) | Reduction of GFP expression, 50 µmol/L peptide (E. coli 70S ribosome [2]; cell-free expression, peptide-to-ribosome ratio of 25, GFP fluorescence, 37 °C) | Reduction of GFP fluorescence intensity, 10-fold lower concentration (5 µmol/L peptide) (E. coli 70S ribosome [2]; cell-free expression, 2.5-fold peptide excess, 37 °C)
1 | CC[C@H](C)[C@H](NC(=O)[C@@H](CCCNC(=N)N)NC(=O)[C@H](CCCNC(=N)N)NC(=O)[C@@H]1CCCN1C(=O)[C@@H]1CCCN1C(=O)[C@H](CCCNC(=N)N)NC(=O)[C@@H]1CCCN1C(=O)[C@H](CCCNC(=N)N)NC(=O)[C@@H]1CCCN1C(=O)[C@H](CC(C)C)NC(=O)[C@H](Cc1ccc(O)cc1)NC(=O)[C@@H]1CCCN1C(=O)[C@@H]1CCCN1C(=O)[C@H](CCCCN)NC(=O)[C@H](CC(=O)O)NC(=O)[C@@H](N)C(C)C)C(=O)N[C@@H](Cc1ccc(O)cc1)C(=O)N[C@@H](CC(N)=O)C(=O)N[C@H](CCCNC(=N)N)C(N)=O [Onc112, reference compound] (H-VDKPPYLPRPRPPR[dR]IYN[dR]-NH2; N-terminus and C-terminus assumed) | 16 to 32 µg/mL | 64 µg/mL | 8 µg/mL (≈ 3.35 µM) | 8 µg/mL | 16 µg/mL | 4.9 ± 0.3% | 150 nM | – | – | – | – | –
2 | CC(C)C[C@H](NC(=O)[C@H](Cc1ccc(O)cc1)NC(=O)[C@@H]1CCCN1C(=O)[C@H](CCCNC(=N)N)NC(=O)[C@@H]1CCCN1C(=O)[C@H](CCCCN)NC(=O)[C@H](CC(=O)O)NC(=O)[C@@H]1CCCN1C(=O)[C@H](CCCNC(=N)N)NC(=O)C1(N)CCCCC1)C(=O)N1CCC[C@H]1C(=O)N[C@@H](CCCNC(=N)N)C(=O)N1CCC[C@H]1C(=O)N[C@@H](CCCNC(=N)N)C(=O)N1CCC[C@H]1C(=O)N1CCC[C@H]1C(=O)N[C@@H](CCCNC(=N)N)C(=O)N1CCC[C@H]1C(=O)N[C@H](C(=O)N[C@@H](CCCNC(=N)N)C(N)=O)C(C)C [ARV-1502] (H-[Ac6c]RPDKPRPYLPRPRPPRPVR-NH2) | 16 to 32 µg/mL | 64 µg/mL | 8 µg/mL (≈ 3.23 µM) | 8 µg/mL | 16 µg/mL | 105.8 ± 0.9% | – | did not indicate synergistic or antagonistic effects | 3140 nM | 120 nM | no significant effects; also recorded: not at all | –
3 | CC(C)C[C@H](NC(=O)[C@H](Cc1ccc(O)cc1)NC(=O)[C@@H]1CCCN1C(=O)[C@H](CCCNC(=N)N)NC(=O)[C@@H]1CCCN1C(=O)[C@H](CCCCN)NC(=O)[C@H](CCCCN)NC(=O)[C@@H]1CCCN1C(=O)[C@H](CCCNC(=N)N)NC(=O)C1(N)CCCCC1)C(=O)N1CCC[C@H]1C(=O)N[C@@H](CCCNC(=N)N)C(=O)N1CCC[C@H]1C(=O)N[C@@H](CCCNC(=N)N)C(=O)N1CCC[C@H]1C(=O)N1CCC[C@H]1C(=O)N[C@@H](CCCNC(=N)N)C(=O)N1CCC[C@H]1C(=O)N[C@H](C(=O)N[C@@H](CCCNC(=N)N)C(N)=O)C(C)C [Peptide 2] (H-[Ac6c]RPKKPRPYLPRPRPPRPVR-NH2; N-terminus and C-terminus assumed) | – | – | 4 µg/mL (≈ 1.61 µM) | 4 µg/mL | 32 to 64 µg/mL | 53.2 ± 8.2% | – | Slightly higher FICIs | – | – | – | 22%
